Results: patent US20250222066A1, “COMPOSITIONS AND METHODS OF TREATING, PREVENTING OR INHIBITING A FACULTATIVE ANAEROBE INFECTION” (UNIVERSITY OF UTAH RESEARCH FOUNDATION, priority 2022, published 2025)
Entries after “also recorded” stand apart in the source; their conditions may differ. Read-outs that look alike come from different tables or passages of the source.

Assays:
[1] = tested on: S. aureus ATCC 6538 biofilms; test: Hypoxyprobe immunohistochemical staining of pimonidazole adducts in biofilms; assay type: cell-based; conditions: 0.06 mg/ml pimonidazole, 5 h
Text: Further, the Hypoxyprobe™ immunohistochemistry kit was used to identify regions of the biofilm that might be hypoxic, and to identify regions with nitro-reductase activity. At the core of the Hypoxyprobe™ kit is the use of the nitroimidazole pimonidazole; it is used to treat, usually animal tissues, but in this case bacterial tissues (biofilms) while in homeostasis prior to fixation, embedment, sectioning, and staining (see structures FIGS. 5E-F). The nitro group on pimonidazole, like that on metronidazole, is reductively activated in hypoxic mammalian tissues by reaction with catalytic nitro-reductase enzymes; it then forms indiscriminate adducts with inter-cellular thiol groups. In the presence of oxygen, the reduced nitro group in pimonidazole (and metronidazole) rapidly reacts with oxygen thereby cycling back to the parent compound. The Hypoxyprobe™ kit contains a primary antibody against these intercellular pimonidazole adducts. Successful immunohistochemical staining of pimonidazole adducts in the biofilm core indicates two important things. First, it would show nitro-reductase activity in the biofilm, and second it would be direct evidence for […] oxygen tension for a nitroimidazole prodrug radical to persist and react with critical cellular components. […]

S. epidermidis = test: Minimum inhibitory concentration (MIC) assay, planktonic bacteria; assay type: cell-based, Staphylococcus epidermidis; conditions: Staphylococcus epidermidis, for 1:1 combinations MIC is the sum of both compounds
Procedure: (§1) Three groups of 5 coupons/samples (n=5) were placed into 2 ml treatments either containing 0.5-1 mg/ml of gentamicin, metronidazole, or combinations thereof (in CAMHB) and incubated for 24 h at 37° C. Importantly, the total antibiotic concentration (mg/ml) was fixed for each sample to enable assessment of compound synergy.
(§2) For comparison to these biofilm tests with adjunctive metronidazole, the MIC was determined for each organism and each compound tested.

[2] = tested on: biofilms of a range of Gram-negative and Gram-positive organisms; test: CDC biofilm reactor test of metronidazole combinations across species (FIG. 1); assay type: cell-based; conditions: paired with gentamicin or levofloxacin (S. epidermidis); 0.5-1 mg/ml total, 24 h
Procedure: (§3) For determining the broad-spectrum utility of metronidazole, respective bacterial species were grown into stationary biofilms using a 2- or 3-day species-specific growth protocol in a CDC biofilm reactor on standard 0.5 in polycarbonate coupons. Each reactor holds up to 24 coupons/samples with adherent biofilms. Bacterial bioburden, represented as colony forming units (CFUs), from five reactor samples/coupons (n=5) were quantified by first dispersing the bacterial biofilms in 2 ml of PBS by standardized vortex-sonication technique and serial-dilution plating. Importantly, this quantification technique provides bioburden data with logarithmic sensitivity. […] The gray shaded regions represent standard deviations.
as §1
After the 24 h treatment, the bacteria adhered to coupons were quantified by rinsing the samples very gently in excess PBS followed by vortexing and sonicating to disperse the biofilm in 2 ml PBS and subsequent serial-dilution plating. The bioburden of the adhered bacteria is represented by the blue bars in FIG. 1. […]

S. aureus biofilm = test: Live/dead imaging of metronidazole-treated biofilm; assay type: cell-based; conditions: 0.5 mg/ml metronidazole, 24 h
Text: FIGS. 9A-B show biofilm histochemical staining. […] Staining of pimonidazole adducts in pimonidazole-treated S. aureus biofilms is localized in the core; the deepest location (darker brown region indicated by arrow) adjacent to the collagen substrate. Regions where oxygen tension is insufficiently low for pimonidazole adduct formation is shown (arrow head; lighter brown region). […] Viable bacteria (green) resided on the biofilm surface, where oxygen and nutrients were readily available.
Next, a time-lapse confocal imaging paired with live-dead staining was used to observe the location of metronidazole-induced cell death.

E. coli = test: Minimum inhibitory concentration (MIC) assay, planktonic bacteria; assay type: cell-based, Escherichia coli; conditions: Escherichia coli, for 1:1 combinations MIC is the sum of both compounds
Procedure: as §2

[3] = tested on: S. aureus ATCC 6538 biofilms; test: CDC biofilm reactor coupons, 24 h antibiotic treatment, bioburden by serial dilution plating; assay type: cell-based; conditions: 24 h treatment, FIG. 1 and FIG. 7
Procedure: as §3, §1
After the 24 h treatment, the bacteria adhered to coupons were quantified by rinsing the samples very gently in excess PBS followed by vortexing and sonicating to disperse the biofilm in 2 ml PBS and subsequent serial-dilution plating. The bioburden of the adhered bacteria is represented by the blue bars in FIG. 1. […] Broth bioburden is represented by the red bars in FIG. 1.
Twelve hypoxia activated prodrugs from three categories were tested: nitroimidazoles (same class as metronidazole), nitrofurans, and anti-tumor agents.
To test each compound, the contents of an entire CDC-biofilm reactor (24 coupons/biofilm samples) were used (see FIG. 2 and FIG. 3). […] Using the methods described above, 4 reactor samples/coupons served as reactor controls. The remaining 20 samples/coupons were split into 4 treatment groups of 5 samples each (n=5).
For testing against S. aureus biofilms, the compounds were prepared at a concentration of 1 mM in CAMHB; coupons were treated in 2 ml for 24 h. Compounds were intentionally prepared in units of molarity rather than the more common weight/volume ratios of clinicians.
This choice was made for two reasons.
Two of the treatment groups were the same for each test: one in 1 mM nafcillin (a β-lactam antibiotic) and a second in 1 mM gentamicin. […] For comparison for most compounds 1 mM ranges from ˜0.15-0.5 mg/ml, 1 or 2 Log 2 dilutions below tests in FIG. 1. […] The other compounds were tested at the same concentrations.
Quantification of the post-treatment residual bioburden was performed by dispersing biofilm bacteria into the 2 ml treatments with its constituent bacteria by vortexing, and sonicating. […] The pelleted bacteria were resuspended and measured by the serial dilution plating technique. Thus, the values presented in FIGS. 2, 3 and 4 represent the cumulative change in bioburden from the surface-attached biofilms and bacteria in the treatments.

K. pneumoniae = test: Minimum inhibitory concentration (MIC) assay, planktonic bacteria; assay type: cell-based, Klebsiella pneumoniae; conditions: for MIC: Klebsiella pneumoniae, for 1:1 combinations MIC is the sum of both compounds
Procedure: as §2

S. aureus = test: as above; assay type: cell-based; conditions: for MIC: Staphylococcus aureus
Text: Shortcomings of clinical antibiotic susceptibility assays. The antibiotic-susceptibility assays used to guide clinical treatment and prophylaxis rely on actively-dividing planktonic bacteria (Williams, D. L. & Costerton, J. W. J Biomed Mat Res B 100, 1163-1169 (2011)). Among the assays performed by clinical reference laboratories are the minimum inhibitory concentration (MIC), and disk diffusion (Kirby-Bauer) assays. The ubiquity of these assays is owed to the fact that they are high throughput, relatively quick to perform, repeatable, and have short turnaround times. They inform clinicians regarding which antibiotic are applicable for a given infection from a simple site swab, blood, or aspirate sample. […] Thus, when a compound, such as metronidazole performs poorly in an MIC assay, a physician would be thoroughly dissuaded from using it. Likewise, in drug-development, a high MIC value would exclude potentially useful anti-biofilm agents from candidate drug libraries. […] Using orthodox clinical methodology, there would be no basis to administer metronidazole in the treatment of a S. aureus-related infections, despite its exceptional efficacy against bacterial biofilms of the same isolates. The MIC assay fails to provide any information about susceptibility profiles of bacteria that reside in the biofilm phenotype.
as §2

A. baumannii = test: as above; assay type: cell-based; conditions: Acinetobacter baumannii; aerobic; for 1:1 combinations MIC is the sum of both compounds
Procedure: as §2

P. aeruginosa = test: as above; assay type: cell-based; conditions: Pseudomonas aeruginosa, for 1:1 combinations MIC is the sum of both compounds
Procedure: as §2

MRSA USA300 = test: as above; assay type: cell-based; conditions: Staphylococcus aureus, for 1:1 combinations MIC is the sum of both compounds
Procedure: as §2

[4] = anaerobic, read-out: Anaerobic MIC

MIC (S. epidermidis; aerobic, read-out: Aerobic MIC) [µg/mL]	MIC (S. epidermidis; [4]) [µg/mL]	MIC (E. coli; aerobic, read-out: Aerobic MIC) [µg/mL]	MIC (E. coli; [4]) [µg/mL]	MIC (K. pneumoniae; aerobic, read-out: Aerobic MIC) [µg/mL]	MIC (K. pneumoniae; [4]) [µg/mL]	reduction in MIC, anaerobic versus aerobic (K. pneumoniae; log-phase planktonic bacteria)	MIC (S. aureus; aerobic, for 1:1 combinations MIC is the sum of both compounds, read-out: Aerobic MIC) [µg/mL]	MIC (S. aureus; anaerobic, for 1:1 combinations MIC is the sum of both compounds, read-out: Anaerobic MIC) [µg/mL]	MIC (S. aureus; isolate used in biofilm tests, read-out: MIC against S. aureus) [µg/mL]	MIC (A. baumannii) [µg/mL]	MIC (P. aeruginosa; aerobic, read-out: Aerobic MIC) [µg/mL]	MIC (P. aeruginosa; [4]) [µg/mL]	MIC (MRSA USA300; aerobic, read-out: Aerobic MIC) [µg/mL]	MIC (MRSA USA300; [4]) [µg/mL]	SMILES	location of pimonidazole adducts (nitro-reductase activity, hypoxia) [1]	synergistic kill against biofilms [2]	location of dead and viable bacteria by live/dead staining (S. aureus biofilm)	antibiofilm activity [3]	effect against planktonic bacteria as indicated by the MIC (S. aureus; FIG. 7 legend)
–	–	–	–	–	–	–	–	–	–	–	–	–	–	–	O=[N+]([O-])c1nccn1CC(O)CN1CCCCC1 (centres unmarked) [pimonidazole]	adducts banded throughout the deepest parts of the biofilm core	–	–	–	–
312	625	1250	156	> 2500	1250	two	2500	> 2500	> 2500	> 2500	> 2500	> 2500	1250	1250	Cc1ncc([N+](=O)[O-])n1CCO [Metronidazole, metronidazole]	–	strong synergistic kill	an abundance of dead and dying bacteria in the biofilm core contrasted with viable bacteria on the biofilm surface; also recorded: Dead cells (red) resided deep within the biofilm core	much greater antibiofilm activity compared to traditional antibiotics; also recorded: graded concentration-dependent effect against biofilms; also recorded: killed the otherwise difficult-to-kill persister cells embedded within the biofilm	little effect against planktonic bacteria
